Reference: patent publication US20190247353A1, “ACNE STRAIN-SELECTIVE ANTIBACTERIAL AGENT” (MOMOTANI JUNTENKAN CO., LTD., priority 2016, published 2019)
In brackets after ≈: the same amount, converted by molar mass. Where two headings read alike, the source gives them in different places.

Experiments:
Format in all cases: cell-based, Propionibacterium acnes
HL043PA1 strain (RT5) = assay: MIC by broth microdilution method, HL043PA1 strain; settings: Cutibacterium acnes, read-out: MIC against acne bacterium strain HL043PA1 strain (RT5)
Description: (§1) An MIC is measured herein according to the broth microdilution method which is the standard method of Japanese Society of Chemotherapy.
(§2) The antibacterial activity of a test substance was determined based on the minimum inhibitory concentration (MIC). An MIC was measured according to the broth microdilution method which is the standard method of Japanese Society of Chemotherapy.
(§3) One-loopful of each acne bacterium strain listed in Table 1 was scraped off and inoculated into 5 mL of a GAM broth slant agar medium (pH 7.0, Nissui Pharmaceutical Co., Ltd.).
The inoculated acne bacterium strain was precultured at 37° C. in a nitrogen atmosphere (anaerobic condition) for 48 hours. […]
(§4) Each fatty acid (Tokyo Chemical Industry Co., Ltd.) listed in Table 2 was dissolved in dimethylsulfoxide (DMSO) as a solvent such that the concentration became 10,000 μg/mL, and used as a test substance.
(§5) Each of strain suspensions (5.0×10^4 cfu/mL) was aliquoted in a 96-well round bottom microplate, each of the test substance (fatty acid concentration 10,000 μg/mL) was added at a 1/10 volume to the aliquot and mixed to prepare measurement samples (fatty acid concentration: 1,000 μg/mL). Measurement samples in 2-fold dilution series were prepared using the strain suspension (fatty acid concentration from 0.48 to 1,000 μg/mL).
The measurement samples were incubated under an anaerobic condition at 37° C. for 2 days. The presence or absence of a precipitation of test microbial cells after the incubation was examined and the minimum concentration at which the precipitation of microbial cells […] was regarded as the MIC (μg/mL) of the test substance against the acne bacterium strain.

HL053PA1 strain (RT4) = assay: MIC by broth microdilution method, HL053PA1 strain; settings: Cutibacterium acnes, read-out: MIC against acne bacterium strain HL053PA1 strain (RT4)
Description: as §1, §2, §3
The inoculated acne bacterium strain was precultured at 37° C. in a nitrogen atmosphere (anaerobic condition) for 48 hours. The precultured microbial cells were diluted in a modified GAM broth liquid medium (pH 6.0) to a concentration of 5.0×10^4 cfu/mL (viable cell count per OD660=1 is 2.0×10^9 cfu/mL), to prepare strain suspensions.
as §4, §5
[…] The presence or absence of a precipitation of test microbial cells after the incubation was examined and the minimum concentration at which the precipitation of microbial cells […] was regarded as the MIC (μg/mL) of the test substance against the acne bacterium strain.

HL110PA3 strain (RT6) = assay: MIC by broth microdilution method, HL110PA3 strain; settings: Cutibacterium acnes, read-out: MIC against acne bacterium strain HL110PA3 strain (RT6)
[1] = test system: HL053PA1 strain (RT4) and HL043PA1 strain (RT5) versus HL110PA3 strain (RT6); assay: Strain-selective antibacterial activity (average of MICRT6/MICRT4 and MICRT6/MICRT5)
Description: Herein, “acne strain-selective antibacterial activity” or “strain-selective antibacterial activity” means an index indicating better inhibition of growth of a dominant strain in acne patients compared to that of a dominant strain in healthy subjects. It is expressed by the average value of the values (MICRT6/MICRT4, and MICRT6/MICRTS) obtained by dividing the minimum inhibitory concentration (MIC) of an object substance with respect to the dominant strain in healthy subjects (RT6 strain) (MICRT6) respectively by the MIC of the object substance with respect to the dominant strain in acne patients (RT4 strain) (MICRT4), and by the MIC of the object substance with respect to the dominant strain in acne patients (RT5 strain) (MICRT5).
The strain-selective antibacterial activity of each test substance (Table 2, right-most column) was evaluated based on the following rating criteria (Table 3). When the strain-selective antibacterial activity is indicated by a numerical range, the rating was based on the minimum value thereof.

[2] = control antibacterial agents, Comparative Example 1, method as Example 1
[3] = control antibacterial agents, Comparative Example 1
[4] = control antibiotics, Comparative Example 2, method as Example 1
[5] = control antibiotics, Comparative Example 2, method as Example 1, LOD = MIC <0.48 ng/mL
[6] = control antibiotics, Comparative Example 2, for LOD calculated using 0.48 ng/mL as MIC of the RT6 strain

Structure (SMILES)	MIC (HL043PA1 strain (RT5); [2])	MIC (HL053PA1 strain (RT4); [2])	MIC (HL110PA3 strain (RT6); [2])	Strain-selective antibacterial activity [1, 3]	MIC (HL043PA1 strain (RT5); [4])	MIC (HL053PA1 strain (RT4); [4])	MIC (HL110PA3 strain (RT6); [5])	Strain-selective antibacterial activity [1, 6]
CCO [Ethanol, reference compound]	500 µg/mL (≈ 10900 µM)	> 1000 µg/mL	500 µg/mL (≈ 10900 µM)	<0.75	–	–	–	–
CC(C)c1cccc(=O)c(O)c1 [Hinokitiol, reference compound]	31.3 µg/mL (≈ 191 µM)	31.3 µg/mL (≈ 191 µM)	31.3 µg/mL (≈ 191 µM)	1.0	–	–	–	–
CCC[C@@H]1C[C@@H](C(=O)N[C@@H]([C@H]2O[C@H](SC)[C@H](O)[C@@H](O)[C@H]2O)[C@H](C)Cl)N(C)C1 [Clindamycin, reference compound]	–	–	–	–	63 µg/mL (≈ 148 µM)	31 µg/mL (≈ 72.9 µM)	0.031 µg/mL (≈ 0.0729 µM)	7.5 × 10^−4
C[C@H]1c2cccc(O)c2C(=O)C2=C(O)[C@]3(O)C(=O)C(C(N)=O)=C(O)[C@@H](N(C)C)[C@@H]3[C@@H](O)[C@@H]21 [Doxycycline, reference compound]	–	–	–	–	2 µg/mL (≈ 4.5 µM)	0.98 µg/mL (≈ 2.21 µM)	0.00048 µg/mL (≈ 0.00108 µM)	3.6 × 10^−4
CC1CCc2c(N3CCC(O)CC3)c(F)cc3c(=O)c(C(=O)O)cn1c23 (centres unmarked) [Nadifloxacin, reference compound]	–	–	–	–	0.031 µg/mL (≈ 0.086 µM)	0.031 µg/mL (≈ 0.086 µM)	< 0.00048 µg/mL	<1.5 × 10^−2
